Measured values reported in PubChem BioAssay AID1963854 (Molecular Pharmacology Branch, DTP, NCI, 2024).

System: 186277-243-T-J2-PDC complex spheroid viability
Test: Anticancer human tumor 186277-243-T-J2-PDC patient-derived colon adenocarcinoma cell line growth inhibition [POLQ]
Conditions: for IC50: curve of first compound; for viability, T/C: stronger effect = lower value
How it was run: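 PDC + HUVEC + MSC complex spheroids; POLQ inhibitors ± partner drugs; top conc. at/near clinical Cmax, else 10 microM (SN-38 1 microM), half-log dilutions; 37 degrees C, 5% CO2.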
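Also: spheroids exposed to compounds for seven days.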
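For viability, T/C in this document: 100% = DMSO vehicle control viability.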

For `C=CCn1c(=O)c2cnc(Nc3ccc(N4CCN(C)CC4)cc3)nc2n1-c1cccc(C(C)(C)O)n1` + Cc1cccc(N(C)C(=O)C2C(O)CCN2c2nc(C)cc(C(F)(F)F)c2C#N)c1, which IC50 (second compound 0.0316 µM) is on record?
Its IC50 is 213 nM.

And the IC50 (second compound 0.1 µM)?
Its IC50 is 230 nM.

What about the IC50 (second compound 0.316 µM) of the same compound?
Its IC50 is 220 nM.

What about the IC50 (second compound 1 µM) of the same compound?
Its IC50 is 226 nM.

And the IC50 (second compound 3.16 µM)?
The IC50 was 223 nM.

And the IC50 (second compound 10 µM)?
Its IC50 is 224 nM.

What about the viability, T/C (second compound 0.0316 µM, first compound 0.00316 µM) of the same compound?
The viability, T/C was 107%.

What about the viability, T/C (second compound 0.0316 µM, first compound 0.01 µM) of the same compound?
The viability, T/C was 102%.

And the viability, T/C (second compound 0.0316 µM, first compound 0.0316 µM)?
Its viability, T/C is 88.4%.

What about the viability, T/C (second compound 0.0316 µM, first compound 0.1 µM) of the same compound?
Its viability, T/C is 96.3%.

And the viability, T/C (second compound 0.0316 µM, first compound 0.316 µM)?
Its viability, T/C is 25.9%.

What about the viability, T/C (second compound 0.0316 µM, first compound 1 µM) of the same compound?
Its viability, T/C is 12.5%.

What about the viability, T/C (second compound 0.1 µM, first compound 0.00316 µM) of the same compound?
Its viability, T/C is 99.1%.

And the viability, T/C (second compound 0.1 µM, first compound 0.01 µM)?
The viability, T/C was 112%.

And the viability, T/C (second compound 0.1 µM, first compound 0.0316 µM)?
Its viability, T/C is 95.3%.

And the viability, T/C (second compound 0.1 µM, first compound 0.1 µM)?
The viability, T/C was 106%.

And the viability, T/C (second compound 0.1 µM, first compound 0.316 µM)?
Its viability, T/C is 29.6%.

And the viability, T/C (second compound 0.1 µM, first compound 1 µM)?
Its viability, T/C is 13.7%.

And the viability, T/C (second compound 0.316 µM, first compound 0.00316 µM)?
Its viability, T/C is 88.1%.

What about the viability, T/C (second compound 0.316 µM, first compound 0.01 µM) of the same compound?
The viability, T/C was 99.4%.

And the viability, T/C (second compound 0.316 µM, first compound 0.0316 µM)?
The viability, T/C was 103%.

And the viability, T/C (second compound 0.316 µM, first compound 0.1 µM)?
The viability, T/C was 111%.

What about the viability, T/C (second compound 0.316 µM, first compound 0.316 µM) of the same compound?
Its viability, T/C is 26.6%.

What about the viability, T/C (second compound 0.316 µM, first compound 1 µM) of the same compound?
The viability, T/C was 13.8%.

What about the viability, T/C (second compound 1 µM, first compound 0.00316 µM) of the same compound?
The viability, T/C was 102%.

What about the viability, T/C (second compound 1 µM, first compound 0.01 µM) of the same compound?
Its viability, T/C is 119%.

What about the viability, T/C (second compound 1 µM, first compound 0.0316 µM) of the same compound?
The viability, T/C was 104%.

What about the viability, T/C (second compound 1 µM, first compound 0.1 µM) of the same compound?
Its viability, T/C is 110%.

And the viability, T/C (second compound 1 µM, first compound 0.316 µM)?
Its viability, T/C is 25.7%.

And the viability, T/C (second compound 1 µM, first compound 1 µM)?
Its viability, T/C is 12.5%.

And the viability, T/C (second compound 3.16 µM, first compound 0.00316 µM)?
The viability, T/C was 119%.

And the viability, T/C (second compound 3.16 µM, first compound 0.01 µM)?
Its viability, T/C is 95.7%.

What about the viability, T/C (second compound 3.16 µM, first compound 0.0316 µM) of the same compound?
The viability, T/C was 102%.

What about the viability, T/C (second compound 3.16 µM, first compound 0.1 µM) of the same compound?
The viability, T/C was 131%.

What about the viability, T/C (second compound 3.16 µM, first compound 0.316 µM) of the same compound?
Its viability, T/C is 22.8%.

And the viability, T/C (second compound 3.16 µM, first compound 1 µM)?
The viability, T/C was 16.8%.

And the viability, T/C (second compound 10 µM, first compound 0.00316 µM)?
The viability, T/C was 116%.

And the viability, T/C (second compound 10 µM, first compound 0.01 µM)?
Its viability, T/C is 102%.

What about the viability, T/C (second compound 10 µM, first compound 0.0316 µM) of the same compound?
The viability, T/C was 106%.

And the viability, T/C (second compound 10 µM, first compound 0.1 µM)?
Its viability, T/C is 106%.

What about the viability, T/C (second compound 10 µM, first compound 0.316 µM) of the same compound?
Its viability, T/C is 24.7%.

What about the viability, T/C (second compound 10 µM, first compound 1 µM) of the same compound?
Its viability, T/C is 12.8%.
